Data reported in US20080293583A1, “Methods for diagnosing mood disorders” (Wyeth, priority 2003, published 2008).

Experiments:
Assay type in all cases: in vivo
[1] = test system: Hydroxysteroid sulfotransferase A (Androsterone-sulfating sulfotransferase); experiment: 2-DE proteome analysis of rat hippocampus: Hydroxysteroid sulfotransferase A; conditions: rat hippocampus cytosolic extract, 10 mg/kg i.p. daily 14 days, vs control; gel spot 79
Protocol: (§1) Animal dosing. Adult male Sprague Dawley rats weighing 230-320 g were housed with ad libitum access to food and water. After 1 week of habituation, rats were administered either an antidepressant or vehicle alone. The following drugs were administered intraperitoneally (i.p.): fluoxetine (10 mg/kg daily), venlafaxine (10 mg/kg daily) or vehicle alone (1 ml/kg normal saline daily) for 14 days (n=3 rats per group).
(§2) Sample preparation and cytosolic protein extraction. The animals were euthanized and hippocampi were rapidly dissected from the whole brain. Samples from each treatment group were pooled and stored at −85° C. Cytosolic extracts were prepared using the universal extraction kit from Sigma (prot-two) as follows: soluble cytoplasmic extraction reagent (S2688) was added to the hippocampal tissue (10 ml/250 mg wet weight). […]
(§3) Two-dimensional gel electrophoresis. […] Molecular masses were determined by running standard protein markers (Genomic Solutions Inc.), covering the range 10-200 kDa as well as internal verification via landmark proteins within the gel. […]
(§4) Protein fixation, silver staining and 2-D gel comparisons. […] Protein spots were outlined (first automatically and then manually) and quantified using the HT analyzer v2.2 software (Genomic Solutions Inc.). The software calculated the relative spot volume of the proteins compared with the total amount of protein in the gel. […]

[2] = test system: Transcription factor BTEB 1; experiment: 2-DE proteome analysis of rat hippocampus: BTEB 1; conditions: rat hippocampus cytosolic extract, 10 mg/kg i.p. daily 14 days, vs control; gel spot 19
Protocol: as §1, §2, §3, §4

[3] = test system: 61 S Ribosomal protein L28; experiment: 2-DE proteome analysis of rat hippocampus: Ribosomal protein L28; conditions: rat hippocampus cytosolic extract, 10 mg/kg i.p. daily 14 days, vs control; gel spot 66
Protocol: as §1, §2, §3, §4

[4] = test system: 10 KD heat shock protein, mitochondrial (Hsp10); experiment: 2-DE proteome analysis of rat hippocampus: Hsp10; conditions: rat hippocampus cytosolic extract, 10 mg/kg i.p. daily 14 days, vs control; gel spot 83
Protocol: as §1, §2, §3, §4

[5] = test system: IGF-1 A precursor; experiment: 2-DE proteome analysis of rat hippocampus after antidepressant treatment: IGF-1 A precursor; conditions: rat hippocampus cytosolic extract, 10 mg/kg i.p. daily 14 days, vs control; gel spot 87
Protocol: as §1, §2, §3, §4

[6] = test system: Transcription Initiation factor IIA Gamma Chain; experiment: 2-DE proteome analysis of rat hippocampus: TFIIA Gamma Chain; conditions: rat hippocampus cytosolic extract, 10 mg/kg i.p. daily 14 days, vs control; gel spot 88
Protocol: as §1, §2, §3, §4

[7] = test system: Dihydropyrimidinase Related Protein-2 (DRP-2; CRMP-2; TOAD-64); experiment: 2-DE proteome analysis of rat hippocampus: DRP-2/CRMP-2; conditions: rat hippocampus cytosolic extract, 10 mg/kg i.p. daily 14 days, vs control; gel spot 1
Protocol: as §1, §2, §3, §4

[8] = test system: D-dopachrome tautomerase; experiment: 2-DE proteome analysis of rat hippocampus: D-dopachrome tautomerase; conditions: rat hippocampus cytosolic extract, 10 mg/kg i.p. daily 14 days, vs control; gel spot 93
Protocol: as §1, §2, §3, §4

[9] = test system: Lymphotactin [precursor] (Cytokine SCM-1; Small inducible cytokine C1); experiment: 2-DE proteome analysis of rat hippocampus: Lymphotactin; conditions: rat hippocampus cytosolic extract, 10 mg/kg i.p. daily 14 days, vs control; gel spot 80
Protocol: as §1, §2, §3, §4

[10] = test system: NG, NG-Dimethylarginine Dimethylaminohydrolase 1 (DDAH1); experiment: 2-DE proteome analysis of rat hippocampus: DDAH1; conditions: rat hippocampus cytosolic extract, 10 mg/kg i.p. daily 14 days, vs control; gel spot 18
Protocol: as §1, §2, §3, §4

[11] = test system: GLIA maturation factor beta (GMF-β); experiment: 2-DE proteome analysis of rat hippocampus: GMF-β; conditions: rat hippocampus cytosolic extract, 10 mg/kg i.p. daily 14 days, vs control; gel spot 67
Protocol: as §1, §2, §3, §4

[12] = test system: Probasin precursor (lipocalin family member); experiment: 2-DE proteome analysis of rat hippocampus: Probasin precursor; conditions: rat hippocampus cytosolic extract, 10 mg/kg i.p. daily 14 days, vs control; gel spot 70
Protocol: as §1, §2, §3, §4

[13] = test system: Alpha-enolase; experiment: 2-DE proteome analysis of rat hippocampus: Alpha-enolase; conditions: rat hippocampus cytosolic extract, 10 mg/kg i.p. daily 14 days, vs control; for Fold change, Alpha-enolase (spot 8): gel spot 8; for Fold change, Alpha-enolase (spot 9): gel spot 9; for Fold change, Alpha-enolase (spot 10): gel spot 10
Protocol: as §1
Sample preparation and cytosolic protein extraction. The animals were euthanized and hippocampi were rapidly dissected from the whole brain. Samples from each treatment group were pooled and stored at −85° C. Cytosolic extracts were prepared using the universal extraction kit from Sigma (prot-two) as follows: soluble cytoplasmic extraction reagent (S2688) was added to the hippocampal tissue (10 ml/250 mg wet weight). Samples were sonicated (4 times at 30 seconds) and centrifuged for 45 minutes (14,000 g) at 4° C. The supernatant was decanted and stored on ice. Ten milliliters of the soluble cytoplasmic extraction reagent was added to the remaining pellet and the sonication and centrifugation steps were repeated. The supernatant was decanted, combined with the previous supernatant and SpeedVac (Savant Instruments, Halbrook, N.Y.) dried. Each sample was dissolved in 2 ml of 2-D lysis buffer (6 M urea, 2 M thiourea, 4% CHAPS, 40 mM Tris, 65 mM dithiothreitol (DTT), 1 mM sodium vanadate, 1 mM sodium fluoride, protease inhibitor tablet (#1836145, Roche)), concentrated and desalted (Centricon tube; 6500 rpm) at 10° C. for 12 hours.
Two-dimensional gel electrophoresis. First dimensional isoelectric focusing (IEF) was performed on 18 cm IPG strips (pH 4-7) using an IPGphor unit (Amersham Pharmacia). Each strip was rehydrated for 16 hours with sample lysate (˜500 ug) in a final volume of 400 uL of IEF solution (10 uL of bromophenol blue (0.25% w/v); 2 uL of Ampholyte (pH 4-7, Amersham #17-6000-86); 2-D lysis buffer). […] The strips were then subjected to a two-step equilibration (50 mM Tris; 2% SDS; 30% glycerol) in (A) 0.5% DTT (Bio-Rad) and (B) 4.5% iodoacetamide (Sigma) buffers before proceeding to SDS-PAGE. Separation in the second dimension was performed on 10% SDS polyacrylamide gels (180×1.5 mm) at a constant voltage of 500 V at 15° C. for 28 hours using an Investigator 2D electrophoresis unit (Genomic Solutions Inc., MA) which accommodated 10 gels. Molecular masses were determined by running standard protein markers (Genomic Solutions Inc.), covering the range 10-200 kDa as well as internal verification via landmark proteins within the gel. The pl values were used as given by the supplier of the immobilized pH-gradient strips.
Protein fixation, silver staining and 2-D gel comparisons. Silver staining of the gels was performed using a silver stain kit (gs#80-0183; Genomic Solutions). All steps were performed at room temperature, gently agitating the trays on a rotary shaker at low speed. Stained gels were scanned using an 8-bit ccd camera and the Investigator G3 ProPic system (Genomic Solutions Inc.). Protein spots were outlined (first automatically and then manually) and quantified using the HT analyzer v2.2 software (Genomic Solutions Inc.). The software calculated the relative spot volume of the proteins compared with the total amount of protein in the gel. The HT analyzer software was used to cross-match (‘synchronize’) and identify protein spots between control gels and drug treatment gels that were different in integrated intensity by at least a factor of 1.5 versus control. […] This population of spots were automatically picked from each gel with the ProPic system for in-gel trypsin digestion.
Enzymatic digestion of protein spots. Silver-stained protein spots were automatically excised and transferred to a 96-well polypropylene microtiter plate. Each excised spot was de-stained to remove the silver ions and enhance sensitivity with 30 mM potassium ferricyanide and 100 mM sodium thiosulfate (1:1 ratio). […]

[14] = test system: Myelin Basic Protein S (MBP S); experiment: 2-DE proteome analysis of rat hippocampus: MBP S; conditions: rat hippocampus cytosolic extract, 10 mg/kg i.p. daily 14 days, vs control; gel spot 64
Protocol: as §1, §2, §3, §4

Compound | Fold change, Hydroxysteroid sulfotransferase A [1] | Fold change, Transcription factor BTEB 1 [2] | Fold change, 61 S Ribosomal protein L28 [3] | Fold change, 10 KD heat shock protein, mitochondrial (Hsp10) [4] | Fold change, IGF-1 A precursor [5] | Fold change, Transcription Initiation factor IIA Gamma Chain [6] | Fold change, Dihydropyrimidinase Related Protein-2 (DRP-2; CRMP-2; TOAD-64) [7] | Fold change, D-dopachrome tautomerase [8] | Fold change, Lymphotactin [precursor] [9] | Fold change, NG, NG-Dimethylarginine Dimethylaminohydrolase 1 (DDAH1) [10] | Fold change, GLIA maturation factor beta (GMF-β) [11] | Fold change, Probasin precursor [12] | Fold change, Alpha-enolase (spot 8) [13] | Fold change, Alpha-enolase (spot 9) [13] | Fold change, Alpha-enolase (spot 10) [13] | Fold change, Myelin Basic Protein S (MBP S) [14]
CNCCC(Oc1ccc(C(F)(F)F)cc1)c1ccccc1 (centres unmarked) [Fluoxetine, fluoxetine] | 2 Fold change | 1.6 Fold change | 0.7 Fold change | 2.3 Fold change | 2.5 Fold change | 2.5 Fold change | 2.6 Fold change | 2.2 Fold change | 2 Fold change | 1.6 Fold change | 3 Fold change | 2.7 Fold change | 3.4 Fold change | 5 Fold change | 3 Fold change | 3.1 Fold change
COc1ccc(C(CN(C)C)C2(O)CCCCC2)cc1 (centres unmarked) [Venlafaxine, venlafaxine] | 2 Fold change | 2.3 Fold change | 0.6 Fold change | 3.8 Fold change | 2.9 Fold change | 2.4 Fold change | 4.1 Fold change | 2.3 Fold change | 1.9 Fold change | 2.2 Fold change | 2.7 Fold change | 2.7 Fold change | 2 Fold change | 4.8 Fold change | 4.1 Fold change | 3.7 Fold change
